# Entries after “also recorded” stand apart in the source; their conditions may differ. Where a SMILES comes first, the peptide text is derived from it. Where no end group is shown, it is not given here. The star is where a group is joined. X1 = CC1(C)C(=CC=C2CCCC(C=CC3=[N+](CCCCS(=O)(=O)[O-])c4ccc(S(=O)(=O)O)cc4C3(C)C)=C2Oc2ccc(S(=O)(=O)O)cc2)N(CCCCCC(=O)NCCN2C(=O)CC(*)C2=O)c2ccc(S(=O)(=O)O)cc21
# T1: EpCAM (Homo sapiens, UniProt P16422)
# T1 construct: endogenous in cells; host or cells: Hep3B human HCC cells (A1 also names human SG231 ICC cells)
# T1 sequence (P16422 24-314): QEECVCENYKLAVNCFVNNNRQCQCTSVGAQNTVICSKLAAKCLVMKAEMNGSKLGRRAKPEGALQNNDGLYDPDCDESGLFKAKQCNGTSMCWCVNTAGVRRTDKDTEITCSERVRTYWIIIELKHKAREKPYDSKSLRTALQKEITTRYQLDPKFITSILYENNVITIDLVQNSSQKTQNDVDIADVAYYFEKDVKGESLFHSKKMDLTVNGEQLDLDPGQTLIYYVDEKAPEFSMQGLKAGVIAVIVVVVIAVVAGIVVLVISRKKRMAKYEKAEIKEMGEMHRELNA
# T2: Epithelial cell adhesion molecule (EpCAM) (human, UniProt P16422 24-314)
# T2 construct: whole, on cells; also called human EpCAM
# T2 sequence (looked up): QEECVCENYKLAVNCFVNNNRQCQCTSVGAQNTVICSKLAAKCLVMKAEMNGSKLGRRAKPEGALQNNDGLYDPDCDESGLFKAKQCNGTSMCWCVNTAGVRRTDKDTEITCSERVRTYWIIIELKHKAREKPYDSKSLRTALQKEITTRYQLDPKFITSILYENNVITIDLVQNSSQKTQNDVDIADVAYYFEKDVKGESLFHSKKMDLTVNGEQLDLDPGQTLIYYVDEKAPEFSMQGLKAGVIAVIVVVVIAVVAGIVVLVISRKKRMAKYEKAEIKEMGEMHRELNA
# Key:
# [1] = molecular target: T1, EpCAM; experiment: siRNA knockdown validation of binding (confocal microscopy); assay type: cell-based; conditions: for fluorescence intensity / cell surface staining, siEpCAM versus siCL: Hep3B (EpCAM+) cells, siRNA against EpCAM vs control siRNA
# Experimental: (§1) An ANOVA was fit with terms for 3 treatments, 2 siRNA effects, and their interactions using slides in triplicate. […] Fluorescence intensities were measured from 10 cells chosen randomly from 3 slides. * P<0.01 by pairwise comparisons.
# Specific binding of HPD*-IRDye800 to EpCAM was validated using siRNA knockdown in human SG231 (EpCAM+) ICC cells. Preliminary data were obtained using Hep3B (EpCAM+) human HCC cells. The cells were treated with siRNA against EpCAM (siEpCAM) and control siRNA (siCL).
# [2] = test system: human HCC Hep3B xenograft tumors; experiment: in vivo NIR fluorescence imaging of orthotopic Hep3B xenograft tumors
# [3] = test system: patient-derived xenograft (PDX) tumor model of HCC; experiment: in vivo whole-body fluorescence imaging, PDX tumor model of HCC; design: species or system mouse; conditions: over 24 hours
# Experimental: (§2) A) Images were collected with excitation at λex=800 nm before (pre) and at 0, 0.5, 1.0, 1.25, 1.5, 2, 4 and 24 hours post-injection of HPD*-IRDye800. […] PFH*-IRDye800 was administered for use as control. […] B) The quantified T/B ratio confirms a peak uptake of HPD*-IRDye800 by tumor at 1.5 hours. The adjacent non-tumor tissue region with equal area to the tumor region was used for background.
# (§3) Tumor-bearing mice [a patient-derived xenograft (PDX) tumor model of HCC] were injected intravenously with the HPD*-IRDye800 and control peptides (300 μM in 200 μl PBS). Unlabeled peptide and ICG were administrated as above. The spatial extent and margins of tumors were identified using a NIR whole-body fluorescence imaging system (Pearl®, LI-COR Biosciences) up to 24 h post injection. The images were acquired using λex=800 nm with 85 μm resolution and 16.8×12 cm^2 field of view (FOV). Image Studio software (Li-Cor Biosciences) was used for analysis. Regions of interest (ROI) with area equal to that of the tumor and adjacent in location was measured for background.
# [4] = test system: HCC micrometastases in lung; experiment: detection of lung micrometastases (immunofluorescence); design: species or system mouse; conditions: lung tissue sections of PDX tumor model mice
# Text: D) Anti-cytokeratin stain confirms presence of human tumor (arrow). […] F) Corresponding histology (H&E) verifies HCC tumor in lung.
# Immunofluorescence images were also collected from lung tissue sections of the PDX tumor model of HCC mice.
# [5] = peptide toxicity, animal necropsy histology (H&E); assay type: in vivo, mouse; conditions: brain, heart, liver, spleen, lung, kidney, stomach, colon
# Experimental: Mice were sacrificed at […].
# Tumor bearing mice were euthanized on day 0 and 15 post-injection of the HPD*-IRDye800 and control peptides. Whole blood (~600 μL) was collected by cardiac puncture and submitted for standard hematology and chemistry. Major organs, including liver, kidney, heart, lung, spleen, stomach, intestine, and brain were resected, processed, and evaluated as routine histology (H&E). A total of 8 mice in each cohort were evaluated.
# [6] = test system: human HCC tumor; experiment: ex vivo immunofluorescence of resected xenograft liver sections; design: species or system mouse; conditions: immunofluorescence on resected liver sections
# Text: After imaging was completed as described in Example 6, the mice were euthanized, and the livers were resected, formalin-fixed, and sectioned to confirm EpCAM expression in human […] tumors. […] The merged image confirms co-localization of peptide and antibody binding to HCC tumor but not to normal mouse liver, FIG. 8D.
# [7] = test system: human HCC specimens; experiment: immunofluorescence binding to human HCC specimens ex vivo
# Experimental: Binding of HPD*-IRDye800 to human HCC specimens and metastatic lymph nodes ex vivo was examined using immunofluorescence.
# The merged images show co-localization of peptide and antibody binding to HCC and normal liver, and a Pearson's correlation coefficient of p=0.68 and 0.66, respectively, were calculated. […] Results were compared with histology evaluated by an expert liver pathologist.
# [8] = in vivo; conditions: mouse, iv, 150 µM, 200 uL
# Experimental: A total of n=8 animals were studied per group. […] P-values were calculated using a one-way ANOVA model. Background was defined as the adjacent non-tumor region with equal area of the tumor region.
# [9] = serum stability (half-life) after intravenous injection in mice; assay type: in vivo; conditions: 40 nmol, mouse serum, 0-24 hours, first-order kinetics fit, read-out: serum half-life T1/2 (converted)
# Experimental: (§4) A Pearson's correlation coefficient of p=0.81 was measured from the merged image. […] B) An apparent dissociation constant of kd=43 nM, R^2=0.99 was measured for HPD*-IRDye800 binding to Hep3B cells. The equilibrium dissociation constant kd=1/ka was calculated by performing using a least square fit of the data to the non-linear equation I=(I0+ImaxKa[X])/(I0+Ka[X]). I0 and Imax are the initial and maximum fluorescence intensities, corresponding to no peptide and at saturation, respectively, and [X] represents the concentration of the bound peptide. Results are the mean values from 3 independent experiments. C) Peptide stability in mouse serum was measured by intravenously injecting HPD*-IRDye800 (200 μM in 200 μL of PBS) in mice (n=5). Serum was collected at various time points from 0-24 hours post-injection. The fluorescence intensity I(t) was measured and fit to a first-order kinetics model I(t)=Io+A×exp(−Bt).
# The serum half-life of HPD*-IRDye800 was measured to assess peptide stability. HPD*-IRDye800 was injected intravenously in live mice. Fluorescence intensities were measured time points ranging from 0-24 hours, and fit to a first order kinetic model.
# [10] = molecular target: T1, EpCAM; experiment: co-localization assay with anti-EpCAM-AF488 on Hep3B cells; assay type: cell-based
# Experimental: as §4
# Finally, specific binding of HPD*-IRDye800 to EpCAM was validated using a co-localization assay. Binding by HPD*-IRDye800 and anti-EpCAM-AF488 to the surface (arrows) of Hep3B cells co-localized with a correlation of p=0.81 measured on the merged image, FIG. 3A.
# [11] = in vivo whole-body fluorescence imaging, PDX tumor model of HCC; design: species or system mouse; conditions: mouse, in vivo, iv, 300 uM in 200 ul PBS, whole-body imaging up to 24 hours, read-out: time of peak T/B ratio post-injection
# Experimental: as §2, §3
# [12] = molecular target: T1, EpCAM; experiment: competition assay with unlabeled peptide; assay type: cell-based; conditions: unlabeled competitor added at 0-120 mM
# Experimental: as §1
# Specific binding of HPD*-IRDye800 to EpCAM was also validated using a competition assay. Unlabeled HPD* was added to compete for binding with IRDye800-labeled HPD* with concentrations ranging from […].
# [13] = molecular target: T2, Epithelial cell adhesion molecule …; experiment: flow cytometry, HPD*-IRDye800 0-200 nM on Hep3B cells; apparent dissociation constant
molecule,measurement,setting,value
"PFHDMHSNHTRT [PFH*, Unlabeled scrambled peptide (control), reference compound]","fluorescence intensity / cell surface staining, siEpCAM versus siCL",[1],non-significant difference
"CC1(C)C(/C=C/C=C/C=C/C=C2\N(CCCCS(=O)(=O)[O-])c3ccc4ccccc4c3C2(C)C)=[N+](CCCCS(=O)(=O)[O-])c2ccc3ccccc3c21.[Na+] [ICG, reference compound]",time of peak uptake / peak T/B ratio post-injection,"[2]; Hep3B xenograft tumors, imaged 0-48 hours",over 48 hours
same,tumor uptake / T/B ratio in whole-body images,[3],non-specific uptake
CSCC[C@H](NC(=O)[C@H](CC(=O)O)NC(=O)[C@@H]1CCCN1C(=O)[C@@H](N)Cc1c[nH]cn1)C(=O)N[C@@H](Cc1ccccc1)C(=O)N[C@H](C(=O)N[C@@H](CCCNC(=N)N)C(=O)N[C@H](C(=O)N[C@@H](Cc1c[nH]cn1)C(=O)N[C@@H](CO)C(=O)N[C@@H](Cc1c[nH]cn1)C(=O)N[C@@H](CC(N)=O)C(=O)NCC(=O)NCC(=O)NCC(=O)N[C@@H](CO)C(=O)N[C@@H](CSC1CC(=O)N(CCNC(=O)CCCCCN2C(=CC=C3CCCC(C=CC4=[N+](CCCCS(=O)(=O)[O-])c5ccc(S(=O)(=O)O)cc5C4(C)C)=C3Oc3ccc(S(=O)(=O)O)cc3)C(C)(C)c3cc(S(=O)(=O)O)ccc32)C1=O)C(N)=O)[C@@H](C)O)[C@@H](C)O (some centres unmarked) [HPD*-IRDye800] (H-HPDMFTRTHSHNGGGSC(X1)-NH2; N-terminus and C-terminus assumed),detection of / binding to HCC micrometastases in lung,[4],detected very small tumor volumes in the form of micrometastases; also recorded: strong binding
same,time to near complete clearance / signal back to baseline,"[2]; Hep3B xenograft tumors, post-injection",~ 48 hours
same,NIR fluorescence intensity of tumor versus PFH*-IRDye800,"[2]; […] post-injection, Hep3B xenograft",significantly greater
same,"mean tumor intensity, fold greater than PFH*-IRDye800","[2]; […] post-injection, tail vein, Hep3B xenograft",> 3.2 fold
same,acute toxicity on histology (H&E) of vital organs,[5],No signs of acute toxicity
same,staining of HCC tumor cell surface (but not normal mouse liver),[6],strong staining; also recorded: Bright fluorescence
same,"fold increase in mean fluorescence intensity, HCC versus normal human liver","[7]; HCC n=36, normal n=12",2.6 fold
same,"Pearson's correlation coefficient, co-localization with anti-EpCAM-AF488",[7]; human HCC sections,0.68
same,"AUC of ROC curve, HCC versus normal",[7]; human specimens ex vivo,0.81
same,sensitivity to distinguish HCC from normal (ROC),[7]; human specimens ex vivo,85%
same,specificity to distinguish HCC from normal (ROC),[7]; human specimens ex vivo,66%
same,"mean fluorescence intensity, binding to HCC versus normal human liver",[7]; immunofluorescence,significantly greater
same,staining of the surface of human HCC cells,"[7]; immunofluorescence, human specimens",Intense staining; also recorded: strong staining
same,"Pearson's correlation coefficient, co-localization with anti-EpCAM-AF488",[7]; normal human liver sections,0.66
same,tissue to tissue ratio,[8],1.5
same,half-life,[9],2.6 h
same,binding to the surface of Hep3B human HCC cells,[10]; confocal microscopy,bind intensely
same,"Pearson's correlation coefficient, co-localization with anti-EpCAM-AF488","[10]; merged image, Hep3B cells",0.81
same,tissue to tissue ratio,[11],1.5
same,tumor uptake / T/B ratio in whole-body images,[3],greater uptake
same,"fluorescence intensity / cell surface staining, siEpCAM versus siCL",[1],Decreased cell surface staining; also recorded: reduced intensity
same,binding to the surface of siCL (control) Hep3B cells,"[1]; confocal microscopy, control siRNA Hep3B cells",strong binding
"HPDMFTRTHSHN [HPD*, Optimized EpCAM-specific peptide, unlabeled]",tumor uptake / T/B ratio in whole-body images,[3],reduced values
same,"fluorescence intensity / cell surface staining, siEpCAM versus siCL",[1],significantly greater signal for siCL versus siEpCAM
same,mean fluorescence intensity from HPD*-IRDye800 with competition from unlabeled peptide,[12],Decreased intensity; also recorded: decreased significantly
"HPDMFTRTHSHNGGGSC (also: IRDye800 attached via C-terminal GGGSC linker, also called IRDye800-labeled HPD*; EpCAM-specific peptide conjugate) [HPD*-IRDye800]",Kd,[13],43 nM

# Reference: US20260199529A1, “EPITHELIAL CELL ADHESION MOLECULE-SPECIFIC PEPTIDE CONJUGATES AND METHODS” (REGENTS OF THE UNIVERSITY OF MICHIGAN, priority 2022, published 2026)
